According to US6855730B2, “3-methylidenyl-2-indolinone modulators of protein kinase” (Sugen, Inc., priority 1998, dated 2005):
pIC50: −log10 of the molar value.

Biological target: T1, chimeric receptor containing the EGFR extracellular domain and intracellular HER2 kinase domain (Homo sapiens, UniProt P04626)
T1 construct: fused on or other part: EGFR ectodomain + HER2 intracellular part, ATP-site indolinones: HER2's kinase
Test: EGF Receptor-HER2 chimeric receptor assay in whole cells (ELISA)
Type: cell-based
Conditions: read-out: HER-2 kinase IC50
In short: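 NIH3T3 cells overexpressing EGFR-extracellular/HER2-kinase chimera, seeded in 0.5% serum for ~40 h, were pretreated with compound (1% final DMSO) 2 h at 37 °C, then stimulated with 100 nM EGF for 5 min. Lysates captured on anti-EGFR plates; phosphotyrosine detected by anti-Ptyr/HRP ELISA at 410 nm as percent inhibition.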

T1 sequence (P04626 720-1255 limits assumed, change not shown): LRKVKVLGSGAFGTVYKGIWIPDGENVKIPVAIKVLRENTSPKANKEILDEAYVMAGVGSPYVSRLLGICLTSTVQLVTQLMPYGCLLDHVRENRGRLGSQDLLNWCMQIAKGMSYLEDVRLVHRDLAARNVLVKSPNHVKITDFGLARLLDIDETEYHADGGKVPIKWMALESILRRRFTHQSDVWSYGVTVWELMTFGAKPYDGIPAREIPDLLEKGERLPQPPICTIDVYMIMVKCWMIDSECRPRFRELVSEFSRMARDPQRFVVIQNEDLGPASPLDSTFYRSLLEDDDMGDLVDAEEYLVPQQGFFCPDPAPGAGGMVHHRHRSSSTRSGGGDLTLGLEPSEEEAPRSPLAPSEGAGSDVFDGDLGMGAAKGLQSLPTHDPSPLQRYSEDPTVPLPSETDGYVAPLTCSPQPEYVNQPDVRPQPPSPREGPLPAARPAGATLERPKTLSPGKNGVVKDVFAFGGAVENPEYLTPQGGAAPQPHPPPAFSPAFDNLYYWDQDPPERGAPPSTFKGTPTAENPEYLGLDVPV

| Structure (SMILES) | pIC50 |
| --- | --- |
| COc1ccc(/C=C2/C(=O)Nc3cc(NC(C)=O)ccc32)cc1-c1cccs1 [Example 31, N-[3-(4-Methoxy-3-thiophen-2-ylbenzylidene)-2-oxo-2,3-dihydro-1H-indol-6-yl]-acetamide] | 4.89 |
| COc1c(C(C)C)cc(/C=C2/C(=O)Nc3ccc(C)cc32)cc1C(C)C [Example 19, 3-(3,5-Diisopropyl-4-methoxybenzylidene)-5-methyl-1,3-dihydroindol-2-one] | 5.04 |
| CCOC(=O)c1c(C)[nH]c(/C=C2\C(=O)Nc3cc(-c4ccccc4OC)ccc32)c1CCC(=O)O [Example 110, 4-(2-Carboxyethyl)-5-[6-(2-methoxyphenyl)-2-oxo-1,2-dihydro-indol-3-ylidenemethyl]-2-methyl-1H-pyrrol-3-yl-carboxylic acid ethyl ester] | < 4.00 |
| O=C1Nc2ccc(Br)cc2/C1=C/c1cc2ccccc2[nH]1 [Example 165, 5-Bromo-3-(1H-indol-2-ylmethylene)-1,3-dihydro-indol-2-one] | < 4.00 |
| CC(C)c1cc(/C=C2/C(=O)Nc3ccc(Br)cc32)cc(C(C)C)c1OCCN1CCOCC1 [Example 57, 5-Bromo-3-[3,5-diisopropyl-4-(2-morpholin-4-ylethoxy)benzylidene]-1,3-dihydroindol-2-one] | < 4.00 |
| COc1ccc(/C=C2/C(=O)Nc3ncccc32)cc1C(C)C [Example 70, 3-(3-Isopropyl-4-methoxybenzylidene)-1,3-dihydropyrrolo[2,3-b]pyridine-2-one] | < 4.00 |
| CNS(=O)(=O)c1ccc2c(c1)C(=Cc1[nH]c3ccccc3c1C)C(=O)N2 (racemic) [Example 154, 3-(3-Methyl-1H-indol-2-ylmethylene)-2-oxo-2,3-dihydro-1H-indole-5-sulfonic acid methylamide] | < 4.00 |
| COc1ccc(/C=C2/C(=O)Nc3ccccc32)cc1-c1ccsc1 [Example 35, 3-(4-Methoxy-3-thiophen-3-ylbenzylidene)-1,3-dihydroindol-2-one] | 4.68 |
| CCOC(=O)c1c(C)[nH]c(/C=C2\C(=O)Nc3cc(-c4ccc(F)cc4)ccc32)c1CCC(=O)O [Example 108, 4-(2-Carboxyethyl)-5-[6-(4-fluorophenyl)-2-oxo-1,2-dihydro-indol-3-ylidenemethyl]-2-methyl-1H-pyrrole-3-carboxylic acid ethyl ester] | < 4.00 |
| COc1cc(C)c(C=C2C(=O)Nc3cc(NC(C)=O)ccc32)cc1C(C)C [Example 27, N-[3-(5-Isopropyl-4-methoxy-2-methyl-benzylidene)-2-oxo-2,3-dihydro-1H-indol-6-yl]-acetamide] | 4.80 |
| COc1ccc(/C=C2/C(=O)Nc3ncccc32)cc1C1CCCCC1 [Example 72, 3-(3-Cyclohexyl-4-methoxybenzylidene)-1,3-dihydropyrrolo[2,3-b]pyridin-2-one] | < 4.00 |

Next, values leading:

| pIC50 | Structure (SMILES) |
| --- | --- |
| 4.22 | CCOc1cccc(-c2cc(C=C3C(=O)Nc4ccccc43)ccc2OC)c1 [Example 46, 3-(3′-Ethoxy-6-methoxybiphenyl-3-ylmethylene)-1,3-dihydroindol-2-one] |
| 4.41 | COc1c(C(C)C)cc(/C=C2/C(=O)Nc3ccc(N)cc32)cc1C(C)C [Example 20, 5-Amino-3-(3,5-diisopropyl-4-methoxy-benzylidene)-1,3-dihydroindol-2-one] |
| 4.48 | CC1(C)CCc2cc(/C=C3/C(=O)Nc4ccc(F)cc43)ccc2O1 [Example 23, 3-(2,2-Dimethylchroman-6-ylmethylene)-5-fluoro-1,3-dihydroindol-2-one] |
| 4.18 | COc1cc(C=C2C(=O)Nc3ccccc32)c(-c2ccccc2OC)cc1OC [Example 49, 3-(4,5,2′-Trimethoxybiphenyl-2-ylmethylene)-1,3-dihydroindol-2-one] |
| 4.07 | COc1c(C(C)C)cc(/C=C2/C(=O)Nc3ccc(Br)cc32)cc1C(C)C [Example 54, 5-Bromo-3-(3,5-diisopropyl-4-methoxybenzylidene)-1,3-dihydroindol-2-one] |
| 4.44 | CC(=O)Nc1ccc2c(c1)NC(=O)/C2=C/c1ccc(OCCN2CCOCC2)c(-c2cccs2)c1 [Example 40, N-{3-[4-(2-Morpholin-4-ylethoxy)-3-thiophen-2-ylbenzylidene]-2-oxo-2,3-dihydro-1H-indol-6-yl}-acetamide] |
